{
  "source": "patent US20110294881A1",
  "about": "“METHODS FOR TREATING LOWER URINARY TRACT DISORDERS USING alpha2delta SUBUNIT CALCIUM CHANNEL MODULATORS WITH SMOOTH MUSCLE MODULATORS” (EDUSA PHARMACEUTICALS, INC., priority 2003, published 2011)",
  "key": {"[1]": {"details": "preclinical and clinical studies; broad range of oral doses; cited from earlier work"}, "[2]": {"tested_on": "female rats, dilute acetic acid irritated bladder", "test": "Dilute acetic acid model, acute anesthetized rats: bladder capacity by cystometry", "format": "in vivo, rat", "details": "Example 1; for effectiveness of drug alone on bladder capacity: i.v.; for effective dose range of the drug in combination versus the drug alone (isobologram): individual animals, return to 31% of saline control, FIG. 4", "protocol": "(§1) Urethane anesthetized (1.2 g/kg) normal female rats were utilized in this study.\n(§2) Animals were dosed by volume of injection=body weight in kg.\nAnimal Preparation: Female rats (250-300 g body weight) were anesthetized with urethane (1.2 g/kg) and a saline-filled catheter (PE-50) was inserted into the jugular vein for intravenous drug administration. […] The abdominal cavity was moistened with saline and closed by covering with a thin plastic sheet in order to maintain access to the bladder for emptying purposes. Fine silver or stainless steel wire electrodes were inserted into the external urethral sphincter (EUS) percutaneously for electromyography (EMG).\nFollowing 30 minutes of AA infusion, 3 vehicle injections were made at 20 minute intervals to determine vehicle effects, if any.\nP<0.050 was considered significant.\nas §1, §2"}, "SCI rats": {"tested_on": "SCI rats", "details": "Cheng et al., 1995, Brain Res. 678:40-48; cited from earlier work"}, "[3]": {"tested_on": "female cats, dilute acetic acid irritated bladder", "test": "Dilute acetic acid model in cats: bladder capacity and voiding efficiency", "format": "in vivo", "details": "cat; 30 mg/kg dose alone", "procedure": "Alpha-chloralose anesthetized (50-100 mg/kg) normal female cats (2.5-3.5 kg; Harlan) were utilized in this study.\nFemale cats (2.5-3.5 kg; Harlan) had their food removed the night before the experiment. The following morning, the cat was anesthetized with isoflurane and prepped for surgery using aseptic technique. Polyethylene catheters were surgically placed to permit the measurement of bladder pressure, urethral pressure, arterial pressure, respiratory rate as well as for the delivery of drugs. Fine wire electrodes were implanted alongside the external urethral anal sphincter. Following surgery, the cats were slowly switched from the gas anesthetic isoflurane (2-3.5%) to alpha-chloralose (50-100 mg/kg). During control cystometry, saline was slowly infused into the bladder (0.5-1.0 ml/min) for 1 hour. The control cystometry was followed by 0.5% acetic acid in saline for the duration of the experiment. After assessing the cystometric variables under these baseline conditions, the effects of test drug(s) on micturition were determined via a 3-5 point dose response protocols.\nFor the purposes of assessing synergy using all of the data simultaneously, bladder capacity data for each animal were normalized to % Recovery from Irritation, and this index was used as the measure of efficacy. […]"}, "[4]": {"tested_on": "α2δ subunit of calcium channels", "details": "Bryans et al. (1999) Med. Res. Rev. 19:149-177; cited from earlier work"}},
  "data": [
    {"smiles": "CC(OC(=O)NCC1(CC(=O)O)CCCCC1)OC(=O)C(C)C", "note": "(stereo not drawn) [XP13512]", "values": [
      {"measurement": "blood levels of gabapentin after oral prodrug", "setting": "[1]", "result": "dose proportional blood levels of gabapentin"}
    ]},
    {"smiles": "CCN(CC)CC#CCOC(=O)C(O)(c1ccccc1)C1CCCCC1", "note": "(stereo not drawn) [oxybutynin, 4-diethylaminio-2-butynyl phenylcyclohexyglycolate]", "values": [
      {"measurement": "effectiveness of drug alone on bladder capacity", "setting": "[2]", "result": "modest effectiveness"},
      {"measurement": "effective dose range of the drug in combination versus the drug alone (isobologram)", "setting": "[2]", "result": "significantly lower"}
    ]},
    {"smiles": "COc1cc(CNC(=O)CCCC/C=C/C(C)C)ccc1O", "note": "[capsaicin]", "values": [
      {"measurement": "bladder capacity to voiding", "setting": "SCI rats", "result": "not effect bladder capacity to voiding"},
      {"measurement": "bladder instability", "setting": "SCI rats", "result": "reduce bladder instability"}
    ]},
    {"smiles": "NCC1(CC(=O)O)CCCCC1", "note": "[gabapentin, 1-(aminomethyl)cyclohexaneacetic acid]", "values": [
      {"measurement": "effectiveness of drug alone on bladder capacity", "setting": "[2]", "result": "modest effectiveness"},
      {"measurement": "effective dose range of the drug in combination versus the drug alone (isobologram)", "setting": "[2]", "result": "significantly lower"},
      {"measurement": "effect on bladder capacity", "setting": "[3]", "result": "no significant effect"}
    ]},
    {"smiles": "CC(C)C[C@H](CN)CC(=O)O", "note": "[Pregabalin, (S)-(3-aminomethyl)-5-methylhexanoic acid]", "values": [
      {"measurement": "binding affinity for the α2δ subunit of calcium channels relative to gabapentin", "setting": "[4]", "result": "even higher binding affinity"}
    ]}
  ]
}
